In the NIST ThermoML archive (doi:10.1021/je9008969):

Legend:
[1] = cn = amount concentration of the nth substance listed, in mol/dm3; details: 298.15 K, 101 kPa, Liquid, Alternating current cell with electrodes
[2] = mn = molality of the nth substance listed, in mol/kg; details: 298.15 K, 101 kPa, Liquid, Alternating current cell with electrodes
[3] = Liquid; Distillation

CC[N+](CC)(CC)CC.[O-][Cl+3]([O-])([O-])[O-] [tetraethylammonium perchlorate] + CC(=O)CC(C)C
[1]
Details | molar conductivity [S·m2/mol]
c1 = 1.622e-05 | 0.00917
c1 = 2.705e-05 | 0.00898
c1 = 3.499e-05 | 0.00888
c1 = 4.526e-05 | 0.00874
c1 = 5.823e-05 | 0.00852
c1 = 7.469e-05 | 0.0083
c1 = 9.761e-05 | 0.00812

CCCCCC[N+](CCCCCC)(CCCCCC)CCCCCC.[O-][Cl+3]([O-])([O-])[O-] [tetrahexylammonium perchlorate] + CC(=O)CC(C)C
[1]
Details | molar conductivity [S·m2/mol]
c1 = 9.876e-05 | 0.00727
c1 = 0.0001295 | 0.00705
c1 = 0.0001762 | 0.00672
c1 = 0.0002207 | 0.00645
c1 = 0.0002798 | 0.00613
c1 = 0.0003687 | 0.00578
c1 = 0.0004788 | 0.00543
c1 = 0.0006209 | 0.00509
c1 = 0.0008088 | 0.00475
c1 = 0.001056 | 0.00441
c1 = 0.00138 | 0.00409
c1 = 0.001782 | 0.0038
c1 = 0.002321 | 0.00351
c1 = 0.003006 | 0.00324
c1 = 0.003917 | 0.00299

CCCCC[N+](CCCCC)(CCCCC)CCCCC.[O-][Cl+3]([O-])([O-])[O-] [tetrapentylammonium perchlorate] + CC(=O)CC(C)C
[2]
Details | molar conductivity [S·m2/mol]
m1 = 9.66e-05 | 0.00743
m1 = 0.0001207 | 0.00719
m1 = 0.0001685 | 0.0068
m1 = 0.0002146 | 0.00647
m1 = 0.0002922 | 0.00606
m1 = 0.0004004 | 0.00562
m1 = 0.0005296 | 0.00524
m1 = 0.0007017 | 0.00487
m1 = 0.0009021 | 0.00468
m1 = 0.001262 | 0.00413
m1 = 0.001674 | 0.0038
m1 = 0.002257 | 0.00347
m1 = 0.003014 | 0.00318
m1 = 0.004036 | 0.0029
m1 = 0.0054 | 0.00265

CCCCCCCCCCCCCCCCCC[N+](C)(C)C.[O-][Cl+3]([O-])([O-])[O-] [N,N,N-trimethyl-1-octadecanaminium perchlorate] + CC(=O)CC(C)C
[1]
Details | molar conductivity [S·m2/mol]
c1 = 0.0001049 | 0.00634
c1 = 0.0001371 | 0.00601
c1 = 0.0001741 | 0.00568
c1 = 0.0002263 | 0.00531
c1 = 0.0002892 | 0.00497
c1 = 0.0003809 | 0.00458
c1 = 0.0004892 | 0.00425
c1 = 0.0006311 | 0.00392
c1 = 0.0008148 | 0.00361
c1 = 0.001062 | 0.0033
c1 = 0.001386 | 0.00302
c1 = 0.001802 | 0.00276
c1 = 0.002337 | 0.00251
c1 = 0.003032 | 0.00229

CCCC[n+]1ccccc1.[O-][Cl+3]([O-])([O-])[O-] [1-butylpyridinium perchlorate] + CC(=O)CC(C)C
[1]
Details | molar conductivity [S·m2/mol]
c1 = 0.0001223 | 0.00753
c1 = 0.0001384 | 0.00709
c1 = 0.0001791 | 0.00669
c1 = 0.0002332 | 0.00627
c1 = 0.0003126 | 0.00579
c1 = 0.0004224 | 0.00533
c1 = 0.0005585 | 0.0049
c1 = 0.0007544 | 0.00446
c1 = 0.001004 | 0.00408
c1 = 0.001345 | 0.00369
c1 = 0.001798 | 0.00335
c1 = 0.002419 | 0.00303
c1 = 0.00324 | 0.00274
c1 = 0.004348 | 0.00248
c1 = 0.005787 | 0.00225

CCCCCCCCCCCCCCCC[N+](C)(C)C.[O-][Cl+3]([O-])([O-])[O-] [N,N,N-trimethyl-1-hexadecanaminium perchlorate] + CC(=O)CC(C)C
[1]
Details | molar conductivity [S·m2/mol]
c1 = 0.0001172 | 0.00637
c1 = 0.0001513 | 0.006
c1 = 0.0002096 | 0.00553
c1 = 0.0002636 | 0.00519
c1 = 0.0003584 | 0.00476
c1 = 0.0005071 | 0.00427
c1 = 0.0006588 | 0.00394
c1 = 0.0008706 | 0.00359
c1 = 0.001168 | 0.00326
c1 = 0.001547 | 0.00295
c1 = 0.002106 | 0.00265
c1 = 0.002797 | 0.0024
c1 = 0.00376 | 0.00216
c1 = 0.005012 | 0.00194
c1 = 0.006683 | 0.00175

CC(=O)CC(C)C [4-methylpentan-2-one]
Details | Normal boiling temperature [°C]
[3] | 114.20

CCCC[N+](CCCC)(CCCC)CCCC.[O-][Cl+3]([O-])([O-])[O-] [tetrabutylammonium perchlorate] + CC(=O)CC(C)C
[1]
Details | molar conductivity [S·m2/mol]
c1 = 9.747e-05 | 0.00773
c1 = 0.0001341 | 0.00737
c1 = 0.0001902 | 0.00693
c1 = 0.0002367 | 0.00662
c1 = 0.0003186 | 0.00622
c1 = 0.0004325 | 0.00577
c1 = 0.0005781 | 0.00535
c1 = 0.0007683 | 0.00495
c1 = 0.001016 | 0.00457
c1 = 0.00138 | 0.00418
c1 = 0.001839 | 0.00383
c1 = 0.002457 | 0.00351
c1 = 0.003309 | 0.0032
c1 = 0.004418 | 0.00292
c1 = 0.005893 | 0.00267

CCCCCCC[N+](CCCCCCC)(CCCCCCC)CCCCCCC.[O-][Cl+3]([O-])([O-])[O-] [N,N,N-triheptylheptan-1-aminium perchlorate] + CC(=O)CC(C)C
[1]
Details | molar conductivity [S·m2/mol]
c1 = 7.179e-05 | 0.00765
c1 = 0.0001036 | 0.00729
c1 = 0.0001318 | 0.00704
c1 = 0.0001594 | 0.00683
c1 = 0.0002244 | 0.00639
c1 = 0.0002974 | 0.00603
c1 = 0.000405 | 0.00563
c1 = 0.0005438 | 0.00525
c1 = 0.0007266 | 0.00487
c1 = 0.0009775 | 0.0045
c1 = 0.001306 | 0.00414
c1 = 0.001751 | 0.0038
c1 = 0.002355 | 0.00348
c1 = 0.003149 | 0.00319
c1 = 0.004208 | 0.00292

CCCCCC[N+](CC)(CC)CC.[O-][Cl+3]([O-])([O-])[O-] [N,N,N-triethyl-1-hexanaminium perchlorate] + CC(=O)CC(C)C
[1]
Details | molar conductivity [S·m2/mol]
c1 = 9.437e-05 | 0.00808
c1 = 0.0001362 | 0.00766
c1 = 0.0001739 | 0.00732
c1 = 0.0002195 | 0.00695
c1 = 0.0002862 | 0.00655
c1 = 0.0003746 | 0.00614
c1 = 0.0004856 | 0.00574
c1 = 0.0006345 | 0.00534
c1 = 0.000817 | 0.00498
c1 = 0.001056 | 0.00462
c1 = 0.001385 | 0.00426
c1 = 0.00181 | 0.00392
c1 = 0.002334 | 0.00362
c1 = 0.003049 | 0.00333
c1 = 0.003975 | 0.00307

CCCCCCCCCCCCCCCC[n+]1ccccc1.[O-][Cl+3]([O-])([O-])[O-] [1-hexadecylpyridinium perchlorate] + CC(=O)CC(C)C
[1]
Details | molar conductivity [S·m2/mol]
c1 = 9.238e-05 | 0.00688
c1 = 0.0001329 | 0.0064
c1 = 0.0001691 | 0.00608
c1 = 0.0002261 | 0.00565
c1 = 0.0002954 | 0.00527
c1 = 0.0004138 | 0.0048
c1 = 0.0005388 | 0.00444
c1 = 0.0007214 | 0.00406
c1 = 0.0009671 | 0.0037
c1 = 0.001303 | 0.00335
c1 = 0.001719 | 0.00306
c1 = 0.002318 | 0.00277
c1 = 0.00312 | 0.0025
c1 = 0.00417 | 0.00226
c1 = 0.005569 | 0.00205

C[N+](C)(C)C.[O-][Cl+3]([O-])([O-])[O-] [tetramethylammonium perchlorate] + CC(=O)CC(C)C
[1]
Details | molar conductivity [S·m2/mol]
c1 = 9.338e-06 | 0.0113
c1 = 1.196e-05 | 0.0112
c1 = 1.53e-05 | 0.0111
c1 = 1.98e-05 | 0.0108
c1 = 2.582e-05 | 0.0105
c1 = 3.276e-05 | 0.0101
c1 = 4.292e-05 | 0.00975
c1 = 5.528e-05 | 0.00934
c1 = 7.008e-05 | 0.00894
c1 = 9.231e-05 | 0.00847
